Assay results as given in ChEMBL document CHEMBL1833811, “Design, synthesis and structure-activity relationship of novel [3.3.1] bicyclic sulfonamide-pyrazoles as potent γ-secretase inhibitors” (Bioorg Med Chem Lett, 2011).

Tests used:
[1] = Ratio of drug uptake in brain to plasma of wild type FVB mouse; assay type: ADME; conditions: brain and plasma, read-out: BPR
[2] = Oral bioavailability in wild type FVB mouse; assay type: ADME, organism-based; conditions: in vivo

Kp [1]	Compound	bioavailability [2]
0.3	O=S(=O)(c1ccc(C(F)(F)F)nc1)N1C2Cc3[nH]ncc3C1CC(c1ccc(F)cc1)C2 (single isomer, unassigned)	
0.08	Cc1noc(C2CC3Cc4[nH]ncc4C(C2)N3S(=O)(=O)c2ccc(Cl)cc2)n1 (single isomer, unassigned)	
	O=S(=O)(c1ccc(Cl)cc1)N1C2CCCC1c1cn[nH]c1C2 (single isomer, unassigned)	2%
